In general, IC50 refers to the concentration that inhibits the measured activity by half.

Drawing on EP1329454A1, “THIENOPYRIMIDINE COMPOUNDS AND THEIR SALTS AND PROCESS FOR PREPARATION OF BOTH” (NIPPON SODA CO., LTD., priority 2000, dated 2002), this text covers IC50 for 35 molecules.

Molecules are shown by their SMILES.

Common to all, as to format: biochemical
For assay [1], the target named is PDE 1 (Ca-calmodulin dependent PDE). As to the kind of experiment: Phosphodiesterase inhibiting effect, PDE 1 separated from dog heart. Particulars: isozyme from the heart of a dog; [3H]-cAMP or [3H]-cGMP substrate; read-out: PDE inhibiting activity : IC50(nM) PDE1. The procedure: (§1) Cyclic nucleotide phosphodiesterases from human platelets and from the heart and kidney of a dog were eluted by the concentration gradient method with 70 to 1000 mM of sodium acetate on DEAE-cellulose column chromatography (Whatman Co. Ltd., DE-52, φ 3.2 x 13 cm) according to the method of Thompson and others (Thompson W. J., et al., Advances in Cyclic Nucleotide Research: 10, 69-92, 1979), and separated into isozymes. PDE 5 (cGMP specific PDE), PDE 3 (cGMP inhibited PDE) and PDE 2 (cGMP stimulated PDE) were separated from the platelets, PDE 1 (Ca-calmodulin dependent PDE) and PDE 4 (cAMP specific PDE) were separated from the heart and the kidney respectively. The method of Thompson, et al was partially modified to measure phosphodiesterase activities: […] of [3H]-cAMP or [3H]-cGMP was decomposed with phosphodiesterase. The produced 5'-AMP or 5'-GMP was decomposed to adenosine or guanosine with a snake venom (Sigma V7000). The reaction solution was added to anion exchange resin (Bio-Rad Co. Ltd., AG1-X8). Non-adsorbed adenosine or guanosine was counted by a liquid scintillation counter. […]

For assay [2], the target named is PDE 4 (cAMP specific PDE). Nature of the assay: Phosphodiesterase inhibiting effect, PDE 4 separated from dog kidney. Particulars: isozyme from the kidney of a dog; [3H]-cAMP or [3H]-cGMP substrate; read-out: PDE inhibiting activity : IC50(nM) PDE4. The procedure:
as §1

The target of assay [3] is T1, PDE 5 (cGMP specific PDE) (Homo sapiens, UniProt O76074).
T1 construct: from tissue; host or cells: human platelets, DEAE-cellulose fraction
As to the kind of experiment: Phosphodiesterase inhibiting effect, PDE 5 separated from human platelets. Particulars: isozyme from human platelets; [3H]-cAMP or [3H]-cGMP substrate; read-out: PDE inhibiting activity : IC50(nM) PDE5. On the procedure: as §1

The target of assay [4] is T2, PDE 3 (cGMP inhibited PDE) (Homo sapiens, UniProt Q14432).
T2 construct: from tissue; host or cells: human platelets, DEAE-cellulose fraction
The settings on record: isozyme from human platelets; [3H]-cAMP or [3H]-cGMP substrate; read-out: PDE inhibiting activity : IC50(nM) PDE3. An excerpt:
PDE 5 (cGMP specific PDE), PDE 3 (cGMP inhibited PDE) and PDE 2 (cGMP stimulated PDE) were separated from the platelets, PDE 1 (Ca-calmodulin dependent PDE) and PDE 4 (cAMP specific PDE) were separated from the heart and the kidney respectively. The method of Thompson, et al was partially modified to measure phosphodiesterase activities: […] of [3H]-cAMP or [3H]-cGMP was decomposed with phosphodiesterase. The produced 5'-AMP or 5'-GMP was decomposed to adenosine or guanosine with a snake venom (Sigma V7000). The reaction solution was added to anion exchange resin (Bio-Rad Co. Ltd., AG1-X8). Non-adsorbed adenosine or guanosine was counted by a liquid scintillation counter.

T2 sequence (Q14432 whole entry): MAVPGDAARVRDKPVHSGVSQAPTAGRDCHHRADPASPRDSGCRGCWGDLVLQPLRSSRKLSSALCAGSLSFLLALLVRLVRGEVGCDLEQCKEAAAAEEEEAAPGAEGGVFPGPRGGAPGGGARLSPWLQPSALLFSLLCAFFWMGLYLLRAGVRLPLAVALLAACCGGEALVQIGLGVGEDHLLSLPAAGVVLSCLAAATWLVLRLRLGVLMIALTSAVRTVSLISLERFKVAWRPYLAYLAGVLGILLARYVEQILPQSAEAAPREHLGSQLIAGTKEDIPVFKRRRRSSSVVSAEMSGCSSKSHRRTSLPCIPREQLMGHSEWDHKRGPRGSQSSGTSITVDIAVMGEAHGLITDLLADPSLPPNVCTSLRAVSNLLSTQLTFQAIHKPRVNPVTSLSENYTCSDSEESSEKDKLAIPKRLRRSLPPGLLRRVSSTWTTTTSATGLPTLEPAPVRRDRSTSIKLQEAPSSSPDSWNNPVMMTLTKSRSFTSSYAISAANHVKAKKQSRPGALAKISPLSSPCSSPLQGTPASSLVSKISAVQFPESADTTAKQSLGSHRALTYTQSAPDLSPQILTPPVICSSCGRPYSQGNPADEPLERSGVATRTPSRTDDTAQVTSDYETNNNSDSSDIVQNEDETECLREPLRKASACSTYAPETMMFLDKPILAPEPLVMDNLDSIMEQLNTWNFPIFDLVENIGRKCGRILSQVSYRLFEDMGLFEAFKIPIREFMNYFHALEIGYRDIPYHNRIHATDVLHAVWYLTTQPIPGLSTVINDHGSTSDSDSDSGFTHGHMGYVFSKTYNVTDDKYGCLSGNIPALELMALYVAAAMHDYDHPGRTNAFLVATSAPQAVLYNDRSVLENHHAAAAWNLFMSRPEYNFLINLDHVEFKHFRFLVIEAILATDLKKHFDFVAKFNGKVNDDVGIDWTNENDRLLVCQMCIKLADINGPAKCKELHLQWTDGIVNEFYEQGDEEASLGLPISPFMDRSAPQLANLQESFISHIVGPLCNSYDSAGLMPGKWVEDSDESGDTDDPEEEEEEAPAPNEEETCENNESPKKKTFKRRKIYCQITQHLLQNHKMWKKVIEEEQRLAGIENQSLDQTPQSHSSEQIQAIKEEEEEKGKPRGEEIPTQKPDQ

For `COc1ccc(CNc2nc(-c3cccnc3)nc3sc(C(=O)O)c(C)c23)cc1Cl` [Compound 1], the figures for the IC50 in assay [1], in assay [2] and in assay [3] were 7100 nM, 1200 nM and 3 nM, respectively.
`COc1ccc(CNc2nc(-c3cccnc3)nc3sc(C(N)=O)c(C)c23)cc1Cl` [Compound 3]: the IC50 in assay [3] came out at 2.3 nM.
Same read-out and setting: the result for `COc1ccc(CNc2nc(-c3cccnc3)nc3sc(C#N)c(C)c23)cc1Cl` [Compound 4] reads 4.5 nM.
As for `COc1ccc(CNc2nc(-c3cccnc3)nc3sc(C(=O)N(C)C)c(C)c23)cc1Cl` [Compound 5], the figures for the IC50 in assay [1], in assay [2] and in assay [3] were over 10000 nM, 1400 nM and 3.7 nM, respectively.
In the case of `COc1ccc(CNc2nc(-c3cccnc3)nc3sc(C(=O)Nc4ccccc4)c(C)c23)cc1Cl` [Compound 6], the IC50 was over 10000 nM in assay [1] and 1.5 nM in assay [3].
As to `COc1ccc(CNc2nc(-c3cccnc3)nc3sc(C(=O)N4CCOCC4)c(C)c23)cc1Cl` [Compound 7], the figures for the IC50 in assay [1], in assay [2] and in assay [3] were over 10000 nM, 1700 nM and 3.5 nM, respectively.
On to `COc1ccc(CNc2nc(-c3cccnc3)nc3sc(C(=O)N4CCN(C=O)CC4)c(C)c23)cc1Cl` [Compound 9], for which the IC50 in assay [3] is 6.1 nM.
With `COc1ccc(CNc2nc(-c3cccnc3)nc3sc(-c4ccncc4)c(C)c23)cc1Cl` [Compound 10], the IC50 in assay [1] was over 10000 nM; in assay [3] it was 3.3 nM.
On to `COc1ccc(CNc2nc(-c3cccnc3)nc3sc(C(=O)Nc4nccs4)c(C)c23)cc1Cl` [Compound 13], for which the IC50 in assay [3] was 0.32 nM.
On to `COc1ccc(CNc2nc(-c3cccnc3)nc3sc(C(=O)Nc4cccnc4)c(C)c23)cc1Cl` [Compound 14], for which the IC50 in assay [3] was determined as 2.1 nM.
Take `COc1ccc(CNc2nc(-c3cccnc3)nc3sc(C(=O)NCCO)c(C)c23)cc1Cl` [Compound 17]: the IC50 in assay [3] turned out to be 2.8 nM.
Same read-out and setting: for `COc1ccc(CNc2nc(-c3cccnc3)nc3sc(C(=O)NCCO[N+](=O)[O-])c(C)c23)cc1Cl` [Compound 18] the value was 2.8 nM.
For `COc1ccc(CNc2nc(-c3ccncc3)nc3sc(C(=O)O)c(C)c23)cc1Cl` [Compound 19], the IC50 is over 10000 nM in assay [1], 4400 nM in assay [2] and 0.74 nM in assay [3].
Taken in the same sequence, the figures for `CCOC(=O)c1sc2nc(-c3ccncc3)nc(NCc3ccc(OC)c(Cl)c3)c2c1C` [Compound 20] were over 10000 nM, over 10000 nM and 3.2 nM.
Take `COc1ccc(CNc2nc(-c3ccncc3)nc3sc(C(=O)N(C)C)c(C)c23)cc1Cl` [Compound 23]: the IC50 in assay [1] is over 10000 nM; in assay [2], 1600 nM; in assay [3] it was 1.6 nM.
For the molecule `COc1ccc(CNc2nc(-c3ccncc3)nc3sc(C(=O)Nc4ccccc4)c(C)c23)cc1Cl` [Compound 24], the IC50 in assay [3] is 0.46 nM.
Still for that read-out and setting: the result for `COc1ccc(CNc2nc(-c3ccncc3)nc3sc(C(=O)Nc4ccc(NC(=O)OC(C)(C)C)cc4)c(C)c23)cc1Cl` [Compound 25] reads 0.52 nM; that for `COc1ccc(CNc2nc(-c3ccncc3)nc3sc(C(=O)Nc4ccc(N)cc4)c(C)c23)cc1Cl` [Compound 26], 0.5 nM.
Consider `COc1ccc(CNc2nc(-c3ccncc3)nc3sc(C(=O)N4CCOCC4)c(C)c23)cc1Cl` [Compound 27], for which the IC50 in assay [1] was over 10000 nM; in assay [2], 3700 nM; in assay [3], 0.53 nM.
Taken in the same sequence, the figures for `COc1ccc(CNc2nc(-c3ccncc3)nc3sc(C(=O)N4CCCCC4)c(C)c23)cc1Cl` [Compound 28] were over 10000 nM, 1600 nM and 0.5 nM.
For the molecule `COc1ccc(CNc2nc(-c3ccncc3)nc3sc(C(=O)N4CCN(C)CC4)c(C)c23)cc1Cl` [Compound 29], the IC50 was over 10000 nM in assay [1], 6900 nM in assay [2] and 0.52 nM in assay [3].
In the same order, the values of `COc1ccc(CNc2nc(-c3ccncc3)nc3sc(-c4ccccn4)c(C)c23)cc1Cl` [Compound 32] are over 10000 nM, 240 nM and 0.68 nM.
`COc1ccc(CNc2nc(-c3ccncc3)nc3sc(C(=O)Nc4nccs4)c(C)c23)cc1Cl` [Compound 33]: in assay [3], the IC50 is 0.095 nM.
Still for that read-out and setting: the result for `COc1ccc(CNc2nc(-c3ccncc3)nc3sc(C(=O)NCCO[N+](=O)[O-])c(C)c23)cc1Cl` [Compound 38] reads 0.65 nM.
In the case of `COc1ccc(CNc2nc(-c3ccccn3)nc3sc(C(=O)Nc4ccccc4)c(C)c23)cc1Cl` [Compound 44], the half-inhibitory concentration (IC50) was over 10000 nM in assay [1] and 6.4 nM in assay [3].
Consider `COc1ccc(CNc2nc(-c3ccccn3)nc3sc(C(=O)Nc4nccs4)c(C)c23)cc1Cl` [Compound 50], for which, in assay [3], the IC50 stood at 2.3 nM.
Same read-out and setting: the result for `COc1ccc(CNc2nc(-c3ccccn3)nc3sc(C(=O)Nc4cccnc4)c(C)c23)cc1Cl` [Compound 51] reads 7.2 nM; that for `COc1ccc(CNc2nc(C(=O)Nc3ccccc3)nc3sc(-c4cccnc4)c(C)c23)cc1Cl` [Compound 57], 0.29 nM.
With `COc1ccc(CNc2nc(C(=O)Nc3ccccc3)nc3sc(-c4ccncc4)c(C)c23)cc1Cl` [Compound 68], the IC50 in assay [1] was over 10000 nM; in assay [4] it was 2400 nM; in assay [2], 10000 nM; in assay [3] it was 0.27 nM.
As to `COc1ccc(CNc2nc(C(=O)Nc3ccccc3)nc3sc(C(=O)Nc4ccccc4)c(C)c23)cc1Cl` [Compound 87], in assay [3], the IC50 amounted to 0.27 nM.
On to `COc1ccc(CNc2nc(C(=O)Nc3ccccc3)nc3sc(-c4ccc(F)cc4)c(C)c23)cc1Cl` [Compound 90], for which the IC50 is over 10000 nM in assay [1], over 10000 nM in assay [4], 8400 nM in assay [2] and 0.43 nM in assay [3].
For the molecule `COc1ccc(CNc2nc(C(=O)Nc3ccccc3)nc3scc(C)c23)cc1Cl` [Compound 91], the IC50 in assay [1] is over 10000 nM; in assay [4], over 10000 nM; in assay [2], 3400 nM; in assay [3], 2.5 nM.
As for `CCOC(=O)c1nc(NCc2ccc(OC)c(Cl)c2)c2cc(-c3ccccc3)sc2n1` [Compound 93], the IC50 in assay [1] was over 10000 nM; in assay [4] it was over 10000 nM; in assay [2] it was over 10000 nM; in assay [3], 2.9 nM.
Consider `COc1ccc(CNc2nc(C(=O)Nc3ccccc3)nc3sc(-c4ccccc4)cc23)cc1Cl` [Compound 94], for which the IC50 in assay [1] was over 10000 nM; in assay [4], over 10000 nM; in assay [2], 5600 nM; in assay [3] it was 0.71 nM.
In the case of `CCCc1nn(C)c2c(=O)[nH]c(-c3cc(S(=O)(=O)N4CCN(C)CC4)ccc3OCC)nc12` [Control, Sildenafil, reference compound], the IC50 in assay [1] was 2000 nM; in assay [2], over 1000 nM.
